From ChEMBL document CHEMBL5715260, “Selectivity Literature for EUbOPEN Chemogenomic Library” (2024)

Key:
[1] = molecular target: T1, Hepatocyte nuclear factor 4-alpha (Homo sapiens) (UniProt P41235); experiment: Selectivity interaction (Reporter gene assay) EUB0001166a HNF4A; parameters: recommended concentration 1 uM
T1 sequence (whole entry): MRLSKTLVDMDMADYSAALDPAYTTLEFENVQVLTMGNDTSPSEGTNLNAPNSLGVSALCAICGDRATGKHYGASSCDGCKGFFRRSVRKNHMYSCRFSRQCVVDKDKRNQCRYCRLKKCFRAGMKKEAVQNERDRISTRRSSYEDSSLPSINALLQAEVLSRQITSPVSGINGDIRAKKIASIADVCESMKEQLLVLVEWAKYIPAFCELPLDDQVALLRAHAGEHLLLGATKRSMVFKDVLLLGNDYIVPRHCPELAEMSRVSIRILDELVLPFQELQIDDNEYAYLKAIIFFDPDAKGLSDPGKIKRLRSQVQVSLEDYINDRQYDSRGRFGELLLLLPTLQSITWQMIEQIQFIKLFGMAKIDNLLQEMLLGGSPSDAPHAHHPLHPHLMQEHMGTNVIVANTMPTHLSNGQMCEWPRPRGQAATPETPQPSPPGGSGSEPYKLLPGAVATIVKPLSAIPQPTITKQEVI

[2] = molecular target: T2, Nuclear receptor subfamily 2 group C member 1 (Homo sapiens) (UniProt P13056); experiment: Selectivity interaction (Reporter gene assay) EUB0001166a NR2C1; parameters: recommended concentration 1 uM
T2 sequence (whole entry): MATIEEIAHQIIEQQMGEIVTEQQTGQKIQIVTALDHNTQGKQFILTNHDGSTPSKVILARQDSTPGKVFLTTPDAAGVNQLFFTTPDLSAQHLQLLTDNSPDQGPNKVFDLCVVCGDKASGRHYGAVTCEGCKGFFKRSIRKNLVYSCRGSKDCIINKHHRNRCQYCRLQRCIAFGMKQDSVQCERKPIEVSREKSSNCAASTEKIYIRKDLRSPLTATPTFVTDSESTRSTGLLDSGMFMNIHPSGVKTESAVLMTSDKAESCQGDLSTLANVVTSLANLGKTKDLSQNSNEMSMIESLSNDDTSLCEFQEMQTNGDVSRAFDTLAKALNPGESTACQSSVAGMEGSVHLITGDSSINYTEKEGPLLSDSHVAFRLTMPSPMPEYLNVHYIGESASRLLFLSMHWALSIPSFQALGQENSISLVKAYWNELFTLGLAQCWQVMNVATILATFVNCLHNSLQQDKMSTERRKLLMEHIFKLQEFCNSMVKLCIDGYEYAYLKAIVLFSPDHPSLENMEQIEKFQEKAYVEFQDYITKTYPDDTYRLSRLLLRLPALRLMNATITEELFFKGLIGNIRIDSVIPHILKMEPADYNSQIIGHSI

[3] = molecular target: Nuclear receptor subfamily 2 group E member 1 (Homo sapiens) (UniProt Q9Y466); experiment: Selectivity interaction (Reporter gene assay) EUB0001166a NR2E1; parameters: recommended concentration 1 uM
Nuclear receptor subfamily 2 group E member 1 (Homo sapiens), sequence (Q9Y466 whole entry): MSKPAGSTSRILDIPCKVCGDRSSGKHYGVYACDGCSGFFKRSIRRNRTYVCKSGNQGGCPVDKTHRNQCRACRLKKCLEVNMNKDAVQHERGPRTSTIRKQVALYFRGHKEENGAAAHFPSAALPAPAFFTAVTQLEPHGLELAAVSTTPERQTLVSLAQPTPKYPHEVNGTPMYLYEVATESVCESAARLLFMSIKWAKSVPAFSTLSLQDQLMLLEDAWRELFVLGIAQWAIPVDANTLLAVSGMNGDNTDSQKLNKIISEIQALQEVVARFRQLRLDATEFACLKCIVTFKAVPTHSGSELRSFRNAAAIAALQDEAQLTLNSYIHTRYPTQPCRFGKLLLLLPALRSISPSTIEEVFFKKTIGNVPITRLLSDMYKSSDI

[4] = molecular target: Nuclear receptor subfamily 4immunitygroup A member 1 (Homo sapiens) (UniProt P22736); experiment: Selectivity interaction (Reporter gene assay) EUB0001166a NR4A1; parameters: recommended concentration 1 uM
Nuclear receptor subfamily 4immunitygroup A member 1 (Homo sapiens), sequence (P22736 whole entry): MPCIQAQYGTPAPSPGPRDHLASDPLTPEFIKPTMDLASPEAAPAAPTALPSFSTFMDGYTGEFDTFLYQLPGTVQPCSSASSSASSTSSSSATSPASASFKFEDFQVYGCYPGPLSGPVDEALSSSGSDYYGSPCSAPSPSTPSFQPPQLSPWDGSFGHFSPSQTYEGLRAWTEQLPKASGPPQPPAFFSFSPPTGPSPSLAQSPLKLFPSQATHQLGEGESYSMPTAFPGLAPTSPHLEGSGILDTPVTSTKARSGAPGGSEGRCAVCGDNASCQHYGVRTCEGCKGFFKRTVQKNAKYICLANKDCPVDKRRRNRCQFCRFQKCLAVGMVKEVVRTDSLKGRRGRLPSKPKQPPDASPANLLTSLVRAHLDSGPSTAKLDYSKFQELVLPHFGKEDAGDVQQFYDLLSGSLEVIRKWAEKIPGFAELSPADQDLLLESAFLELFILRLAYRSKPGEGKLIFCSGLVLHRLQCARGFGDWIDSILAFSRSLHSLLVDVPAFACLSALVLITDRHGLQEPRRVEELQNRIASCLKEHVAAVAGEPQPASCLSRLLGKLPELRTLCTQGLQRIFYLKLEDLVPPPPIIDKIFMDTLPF

[5] = molecular target: Steroidogenic factor 1 (Homo sapiens) (UniProt Q13285); experiment: Selectivity interaction (Reporter gene assay) EUB0001166a NR5A1; parameters: recommended concentration 1 uM
Steroidogenic factor 1 (Homo sapiens), sequence (Q13285 whole entry): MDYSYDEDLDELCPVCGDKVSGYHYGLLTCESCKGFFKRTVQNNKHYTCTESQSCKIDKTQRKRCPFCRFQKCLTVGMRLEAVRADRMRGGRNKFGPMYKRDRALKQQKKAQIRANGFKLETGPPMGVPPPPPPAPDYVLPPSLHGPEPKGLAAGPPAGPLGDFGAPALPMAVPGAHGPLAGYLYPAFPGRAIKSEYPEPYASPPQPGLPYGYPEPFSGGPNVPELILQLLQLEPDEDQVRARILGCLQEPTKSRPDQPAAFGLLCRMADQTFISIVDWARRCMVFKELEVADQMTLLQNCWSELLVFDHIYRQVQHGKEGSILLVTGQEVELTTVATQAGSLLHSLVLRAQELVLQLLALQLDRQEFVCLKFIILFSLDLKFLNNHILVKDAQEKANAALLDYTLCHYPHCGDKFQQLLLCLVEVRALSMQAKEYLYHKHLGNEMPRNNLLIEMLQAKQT

[6] = molecular target: T3, Alpha trans-inducing protein (Human alphaherpesvirus 1) (UniProt A0A5J6DW59); experiment: Selectivity interaction (Reporter gene assay) EUB0001166a UL48; parameters: recommended concentration 1 uM
T3 sequence (A0A5J6DW59 as listed by the source): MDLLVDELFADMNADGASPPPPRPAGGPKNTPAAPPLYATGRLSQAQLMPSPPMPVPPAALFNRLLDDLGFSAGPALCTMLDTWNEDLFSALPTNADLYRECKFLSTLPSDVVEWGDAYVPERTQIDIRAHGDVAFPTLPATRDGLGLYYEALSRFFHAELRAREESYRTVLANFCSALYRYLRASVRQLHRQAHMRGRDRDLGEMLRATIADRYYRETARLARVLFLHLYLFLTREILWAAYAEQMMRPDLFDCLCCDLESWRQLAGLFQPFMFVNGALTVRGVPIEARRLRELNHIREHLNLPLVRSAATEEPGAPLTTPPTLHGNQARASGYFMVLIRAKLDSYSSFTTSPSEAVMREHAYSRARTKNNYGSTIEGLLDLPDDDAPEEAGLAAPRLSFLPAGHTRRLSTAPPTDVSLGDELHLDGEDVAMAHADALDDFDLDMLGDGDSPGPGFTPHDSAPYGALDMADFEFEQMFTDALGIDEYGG

[7] = molecular target: T4, Retinoic acid receptor RXR-alpha (Homo sapiens) (UniProt P19793); experiment: Selectivity interaction (Reporter gene assay) EUB0001166a RXRA; parameters: recommended concentration 1 uM; details: reference bexarotene 1 uM, Selectivity number of off-targets 0.0, Selectivity number of targets 1.0, Source Knowledge inhouse
T4 sequence (whole entry): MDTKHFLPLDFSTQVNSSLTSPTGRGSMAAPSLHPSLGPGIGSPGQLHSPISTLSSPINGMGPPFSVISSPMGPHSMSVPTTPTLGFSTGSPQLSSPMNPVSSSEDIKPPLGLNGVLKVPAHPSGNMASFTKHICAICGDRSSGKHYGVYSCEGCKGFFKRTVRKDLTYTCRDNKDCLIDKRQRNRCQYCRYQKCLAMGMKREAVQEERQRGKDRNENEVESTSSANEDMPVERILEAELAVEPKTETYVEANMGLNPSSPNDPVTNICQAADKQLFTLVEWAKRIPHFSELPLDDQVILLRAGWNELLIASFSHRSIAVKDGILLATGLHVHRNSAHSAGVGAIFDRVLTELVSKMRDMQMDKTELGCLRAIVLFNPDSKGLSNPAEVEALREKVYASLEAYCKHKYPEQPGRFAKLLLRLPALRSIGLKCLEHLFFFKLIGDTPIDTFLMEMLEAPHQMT

[8] = molecular target: T5, Oxysterols receptor LXR-beta (Homo sapiens) (UniProt P55055); experiment: Selectivity interaction (Reporter gene assay) EUB0001168a NR1H2; parameters: recommended concentration 1 uM; details: screened at recom. conc., Selectivity number of off-targets 1.0, Selectivity number of targets 19.0, Source Knowledge inhouse
T5 sequence (whole entry): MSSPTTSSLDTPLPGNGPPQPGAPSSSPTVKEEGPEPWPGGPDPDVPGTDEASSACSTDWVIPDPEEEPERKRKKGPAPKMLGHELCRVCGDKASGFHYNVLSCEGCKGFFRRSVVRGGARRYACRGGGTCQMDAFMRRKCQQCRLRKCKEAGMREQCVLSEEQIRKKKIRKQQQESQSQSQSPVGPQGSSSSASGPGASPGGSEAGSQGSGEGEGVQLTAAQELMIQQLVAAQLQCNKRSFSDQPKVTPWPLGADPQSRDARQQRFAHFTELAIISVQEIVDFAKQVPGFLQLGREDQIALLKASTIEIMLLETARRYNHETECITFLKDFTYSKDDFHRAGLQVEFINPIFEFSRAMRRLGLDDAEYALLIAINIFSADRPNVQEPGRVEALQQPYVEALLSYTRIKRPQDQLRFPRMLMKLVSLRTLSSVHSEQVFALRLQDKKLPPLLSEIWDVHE

[9] = molecular target: T1, Hepatocyte nuclear factor 4-alpha (Homo sapiens); experiment: Selectivity interaction (Reporter gene assay) EUB0001168a HNF4A; parameters: recommended concentration 1 uM
[10] = molecular target: T2, Nuclear receptor subfamily 2 group C member 1 (Homo sapiens); experiment: Selectivity interaction (Reporter gene assay) EUB0001168a NR2C1; parameters: recommended concentration 1 uM
[11] = molecular target: Nuclear receptor subfamily 2 group E member 1 (Homo sapiens) (UniProt Q9Y466); experiment: Selectivity interaction (Reporter gene assay) EUB0001168a NR2E1; parameters: recommended concentration 1 uM
[12] = molecular target: Nuclear receptor subfamily 4immunitygroup A member 1 (Homo sapiens) (UniProt P22736); experiment: Selectivity interaction (Reporter gene assay) EUB0001168a NR4A1; parameters: recommended concentration 1 uM
[13] = molecular target: Steroidogenic factor 1 (Homo sapiens) (UniProt Q13285); experiment: Selectivity interaction (Reporter gene assay) EUB0001168a NR5A1; parameters: recommended concentration 1 uM
[14] = molecular target: T3, Alpha trans-inducing protein (Human alphaherpesvirus 1); experiment: Selectivity interaction (Reporter gene assay) EUB0001168a UL48; parameters: recommended concentration 1 uM
[15] = molecular target: T4, Retinoic acid receptor RXR-alpha (Homo sapiens); experiment: Selectivity interaction (Reporter gene assay) EUB0001168a RXRA; parameters: recommended concentration 1 uM; details: reference bexarotene 1 uM, Selectivity number of off-targets 0.0, Selectivity number of targets 1.0, Source Knowledge inhouse
[16] = molecular target: Steroidogenic factor 1 (Homo sapiens) (UniProt Q13285); experiment: Selectivity interaction (Reporter gene assay) EUB0001161a NR5A1; parameters: recommended concentration 10 uM
[17] = molecular target: T3, Alpha trans-inducing protein (Human alphaherpesvirus 1); experiment: Selectivity interaction (Reporter gene assay) EUB0001161a UL48; parameters: recommended concentration 10 uM
[18] = molecular target: Nuclear receptor ROR-alpha (Homo sapiens) (UniProt P35398); details: screened at recom. conc., Selectivity number of off-targets 1.0, Selectivity number of targets 19.0, Source Knowledge inhouse
Nuclear receptor ROR-alpha (Homo sapiens), sequence (P35398 whole entry): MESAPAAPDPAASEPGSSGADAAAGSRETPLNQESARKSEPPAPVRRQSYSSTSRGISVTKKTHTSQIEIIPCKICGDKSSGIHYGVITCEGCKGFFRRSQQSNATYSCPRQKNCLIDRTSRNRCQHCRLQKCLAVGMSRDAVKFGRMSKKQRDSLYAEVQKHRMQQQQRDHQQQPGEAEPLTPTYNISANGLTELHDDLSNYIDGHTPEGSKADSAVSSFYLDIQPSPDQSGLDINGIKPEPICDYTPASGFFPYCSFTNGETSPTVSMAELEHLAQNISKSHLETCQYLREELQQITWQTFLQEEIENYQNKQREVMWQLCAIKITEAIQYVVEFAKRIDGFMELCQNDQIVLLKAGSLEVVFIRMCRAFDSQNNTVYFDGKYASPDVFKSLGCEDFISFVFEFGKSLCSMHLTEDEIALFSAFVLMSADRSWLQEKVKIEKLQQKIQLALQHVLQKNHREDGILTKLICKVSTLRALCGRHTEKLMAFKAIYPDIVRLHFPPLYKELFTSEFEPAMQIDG

[19] = molecular target: T2, Nuclear receptor subfamily 2 group C member 1 (Homo sapiens); details: screened at recom. conc., Selectivity number of off-targets 1.0, Selectivity number of targets 5.0, Source Knowledge inhouse
[20] = molecular target: T1, Hepatocyte nuclear factor 4-alpha (Homo sapiens)
[21] = molecular target: Nuclear receptor subfamily 2 group E member 1 (Homo sapiens) (UniProt Q9Y466)
[22] = molecular target: Nuclear receptor subfamily 4immunitygroup A member 1 (Homo sapiens) (UniProt P22736)
[23] = molecular target: T1, Hepatocyte nuclear factor 4-alpha (Homo sapiens); experiment: Selectivity interaction (Reporter gene assay) EUB0001164a HNF4A; parameters: recommended concentration 1 uM
[24] = molecular target: T2, Nuclear receptor subfamily 2 group C member 1 (Homo sapiens); experiment: Selectivity interaction (Reporter gene assay) EUB0001164a NR2C1; parameters: recommended concentration 1 uM
[25] = molecular target: Nuclear receptor subfamily 2 group E member 1 (Homo sapiens) (UniProt Q9Y466); experiment: Selectivity interaction (Reporter gene assay) EUB0001164a NR2E1; parameters: recommended concentration 1 uM
[26] = molecular target: Nuclear receptor subfamily 4immunitygroup A member 1 (Homo sapiens) (UniProt P22736); experiment: Selectivity interaction (Reporter gene assay) EUB0001164a NR4A1; parameters: recommended concentration 1 uM
[27] = molecular target: Steroidogenic factor 1 (Homo sapiens) (UniProt Q13285); experiment: Selectivity interaction (Reporter gene assay) EUB0001164a NR5A1; parameters: recommended concentration 1 uM
[28] = molecular target: T3, Alpha trans-inducing protein (Human alphaherpesvirus 1); experiment: Selectivity interaction (Reporter gene assay) EUB0001164a UL48; parameters: recommended concentration 1 uM
[29] = molecular target: T4, Retinoic acid receptor RXR-alpha (Homo sapiens); experiment: Selectivity interaction (Reporter gene assay) EUB0001164a RXRA; parameters: recommended concentration 1 uM; details: reference bexarotene 1 uM, Selectivity number of off-targets 0.0, Selectivity number of targets 1.0, Source Knowledge inhouse
[30] = molecular target: T1, Hepatocyte nuclear factor 4-alpha (Homo sapiens); experiment: Selectivity interaction (Reporter gene assay) EUB0001159a HNF4A; parameters: recommended concentration 1 uM
[31] = molecular target: T2, Nuclear receptor subfamily 2 group C member 1 (Homo sapiens); experiment: Selectivity interaction (Reporter gene assay) EUB0001159a NR2C1; parameters: recommended concentration 1 uM
[32] = molecular target: Nuclear receptor subfamily 2 group E member 1 (Homo sapiens) (UniProt Q9Y466); experiment: Selectivity interaction (Reporter gene assay) EUB0001159a NR2E1; parameters: recommended concentration 1 uM
[33] = molecular target: Nuclear receptor subfamily 4immunitygroup A member 1 (Homo sapiens) (UniProt P22736); experiment: Selectivity interaction (Reporter gene assay) EUB0001159a NR4A1; parameters: recommended concentration 1 uM
[34] = molecular target: Steroidogenic factor 1 (Homo sapiens) (UniProt Q13285); experiment: Selectivity interaction (Reporter gene assay) EUB0001159a NR5A1; parameters: recommended concentration 1 uM
[35] = molecular target: T3, Alpha trans-inducing protein (Human alphaherpesvirus 1); experiment: Selectivity interaction (Reporter gene assay) EUB0001159a UL48; parameters: recommended concentration 1 uM
[36] = molecular target: T4, Retinoic acid receptor RXR-alpha (Homo sapiens); experiment: Selectivity interaction (Reporter gene assay) EUB0001159a RXRA; parameters: recommended concentration 1 uM; details: reference bexarotene 1 uM, Selectivity number of off-targets 0.0, Selectivity number of targets 1.0, Source Knowledge inhouse

For `CC(C)(O)c1cn(-c2ccc(-c3cccc(S(C)(=O)=O)c3)cc2)c(C(C)(C)c2ccccc2Cl)n1`, the Fold activation [1] was 1.15, the Fold activation [2] was 1.38 and the Remaining activity [3] was 0.931. It also gave a Fold activation [4] of 1.01, a Fold activation [5] of 1.21 and a P-value [6] of 0.000455. The Relative activation [7] was 0.459%.
`O=C(O)c1ccnc(N2CC(O)(c3ccc(OCc4c(-c5c(Cl)cccc5Cl)noc4C4CC4)cc3Cl)C2)c1` gave a Fold activation [8] of 5.01, a Fold activation [9] of 1.13 and a Fold activation [10] of 1.18. For the same compound, the Fold activation [11] was 1.12, the Fold activation [12] was 1.01 and the Fold activation [13] was 1.07. For the same compound, the P-value [14] was 0.0011 and the Relative activation [15] was 0.698%.
Compound `COc1cc(O)c(C(CC(=O)N2C[C@H](C)C[C@H](C)C2)c2ccc3c(c2)OCO3)c(OC)c1` (stereo partly specified) has a Remaining activity [16] of 0.942, a P-value [17] of 0.000227 and a Remaining activity [18] of 0.851. It also gave a Remaining activity [19] of 0.425, a Remaining activity [20] of 0.972 and a Remaining activity [21] of 0.509. It also gave a Remaining activity [22] of 0.899.
Compound `CCOC(=O)c1ccc(CN(Cc2ccc(-c3cccc(S(C)(=O)=O)c3)cc2)S(=O)(=O)c2c(C)cc(C)cc2C)o1` has a Fold activation [23] of 1.29, a Fold activation [24] of 1.02 and a Remaining activity [25] of 0.776. The Fold activation [26] was 1.26, the Fold activation [27] was 1.07 and the P-value [28] was 0.0222. For the same compound, the Relative activation [29] was 0.903%.
`CCc1ccc(N(CC(C)C)S(=O)(=O)c2ccc(OCC3CCOCC3)c(CO)c2)cc1` showed a Remaining activity [30] of 0.994, a Remaining activity [31] of 0.852 and a Remaining activity [32] of 0.852. For the same compound, the Remaining activity [33] was 0.905, the Remaining activity [34] was 0.989 and the P-value [35] was 0.00142. It also gave a Relative activation [36] of 0.288%.
